In PubChem BioAssay AID2060882 (Molecular Pharmacology Branch, DTP, NCI, 2025):

Tested on: 898857-211-R-J1-PDC complex spheroids, growth % test/control
Test: Anticancer human tumor 898857-211-R-J1-PDC patient-derived melanoma cell line growth inhibition [RAS]
Conditions: for IC50: curve of first compound; for viability, T/C: stronger effect = lower value
In short: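 Tumour cells grown as complex spheroids with HUVEC endothelial cells and mesenchymal stem cells, treated with RAS pathway inhibitor combinations. Each agent spans half-log steps from near clinical Cmax, or 10 microM where Cmax is unknown.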

[1] = second compound 0.0316 µM, first compound 0.00316 µM
[2] = second compound 0.0316 µM, first compound 0.01 µM
[3] = second compound 0.0316 µM, first compound 0.0316 µM
[4] = second compound 0.0316 µM, first compound 0.1 µM
[5] = second compound 0.0316 µM, first compound 0.316 µM
[6] = second compound 0.0316 µM, first compound 1 µM
[7] = second compound 0.1 µM, first compound 0.00316 µM
[8] = second compound 0.1 µM, first compound 0.01 µM
[9] = second compound 0.1 µM, first compound 0.0316 µM
[10] = second compound 0.1 µM, first compound 0.1 µM
[11] = second compound 0.1 µM, first compound 0.316 µM
[12] = second compound 0.1 µM, first compound 1 µM
[13] = second compound 0.316 µM, first compound 0.00316 µM
[14] = second compound 0.316 µM, first compound 0.01 µM
[15] = second compound 0.316 µM, first compound 0.0316 µM
[16] = second compound 0.316 µM, first compound 0.1 µM
[17] = second compound 0.316 µM, first compound 0.316 µM
[18] = second compound 0.316 µM, first compound 1 µM
[19] = second compound 1 µM, first compound 0.00316 µM
[20] = second compound 1 µM, first compound 0.01 µM
[21] = second compound 1 µM, first compound 0.0316 µM
[22] = second compound 1 µM, first compound 0.1 µM
[23] = second compound 1 µM, first compound 0.316 µM
[24] = second compound 1 µM, first compound 1 µM
[25] = second compound 0.0316 µM, first compound 0.000949 µM
[26] = second compound 0.0316 µM, first compound 0.003 µM
[27] = second compound 0.0316 µM, first compound 0.00949 µM
[28] = second compound 0.0316 µM, first compound 0.03 µM
[29] = second compound 0.0316 µM, first compound 0.0949 µM
[30] = second compound 0.0316 µM, first compound 0.3 µM
[31] = second compound 0.1 µM, first compound 0.000949 µM
[32] = second compound 0.1 µM, first compound 0.003 µM
[33] = second compound 0.1 µM, first compound 0.00949 µM
[34] = second compound 0.1 µM, first compound 0.03 µM
[35] = second compound 0.1 µM, first compound 0.0949 µM
[36] = second compound 0.1 µM, first compound 0.3 µM
[37] = second compound 0.316 µM, first compound 0.000949 µM
[38] = second compound 0.316 µM, first compound 0.003 µM
[39] = second compound 0.316 µM, first compound 0.00949 µM
[40] = second compound 0.316 µM, first compound 0.03 µM
[41] = second compound 0.316 µM, first compound 0.0949 µM
[42] = second compound 0.316 µM, first compound 0.3 µM
[43] = second compound 1 µM, first compound 0.000949 µM
[44] = second compound 1 µM, first compound 0.003 µM
[45] = second compound 1 µM, first compound 0.00949 µM
[46] = second compound 1 µM, first compound 0.03 µM
[47] = second compound 1 µM, first compound 0.0949 µM
[48] = second compound 1 µM, first compound 0.3 µM
[49] = second compound 3.16 µM, first compound 0.000949 µM
[50] = second compound 3.16 µM, first compound 0.003 µM
[51] = second compound 3.16 µM, first compound 0.00949 µM
[52] = second compound 3.16 µM, first compound 0.03 µM
[53] = second compound 3.16 µM, first compound 0.0949 µM
[54] = second compound 3.16 µM, first compound 0.3 µM
[55] = second compound 10 µM, first compound 0.000949 µM
[56] = second compound 10 µM, first compound 0.003 µM
[57] = second compound 10 µM, first compound 0.00949 µM
[58] = second compound 10 µM, first compound 0.03 µM
[59] = second compound 10 µM, first compound 0.0949 µM
[60] = second compound 10 µM, first compound 0.3 µM
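Also: spheroids exposed to compound for seven days before readout.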
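For viability, T/C in this document: 100% = DMSO vehicle control wells.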

## C=CC(=O)N1CCN(c2nc(OCC3CCCN3C)nc3c(F)c(-c4nc(N)cc(C)c4C(F)(F)F)c(Cl)cc23)C(C)C1 (stereo not drawn) + C#Cc1c(F)ccc2cc(O)cc(-c3ncc4c(N5CC6CCC(C5)N6)nc(OCC56CCCN5CC(F)C6)nc4c3F)c12
Second compound 0.0316 µM
  IC50: > 1000 nM
Second compound 0.1 µM
  IC50: > 1000 nM
Second compound 0.316 µM
  IC50: > 1000 nM
Second compound 1 µM
  IC50: > 1000 nM
Second compound 3.16 µM
  IC50: > 1000 nM
Second compound 10 µM
  IC50: < 3.16 nM
[1]
  viability, T/C: 107%
[2]
  viability, T/C: 92.9%
[3]
  viability, T/C: 103%
[4]
  viability, T/C: 103%
[5]
  viability, T/C: 117%
[6]
  viability, T/C: 118%
[7]
  viability, T/C: 109%
[8]
  viability, T/C: 107%
[9]
  viability, T/C: 109%
[10]
  viability, T/C: 105%
[11]
  viability, T/C: 126%
[12]
  viability, T/C: 117%
[13]
  viability, T/C: 95.8%
[14]
  viability, T/C: 91.4%
[15]
  viability, T/C: 100%
[16]
  viability, T/C: 96%
[17]
  viability, T/C: 114%
[18]
  viability, T/C: 129%
[19]
  viability, T/C: 104%
[20]
  viability, T/C: 102%
[21]
  viability, T/C: 101%
[22]
  viability, T/C: 104%
[23]
  viability, T/C: 105%
[24]
  viability, T/C: 98.9%
Second compound 3.16 µM, first compound 0.00316 µM
  viability, T/C: 99.4%
Second compound 3.16 µM, first compound 0.01 µM
  viability, T/C: 93.5%
Second compound 3.16 µM, first compound 0.0316 µM
  viability, T/C: 86.6%
Second compound 3.16 µM, first compound 0.1 µM
  viability, T/C: 106%
Second compound 3.16 µM, first compound 0.316 µM
  viability, T/C: 116%
Second compound 3.16 µM, first compound 1 µM
  viability, T/C: 87.3%
Second compound 10 µM, first compound 0.00316 µM
  viability, T/C: 56.5%
Second compound 10 µM, first compound 0.01 µM
  viability, T/C: 39.5%
Second compound 10 µM, first compound 0.0316 µM
  viability, T/C: 41.1%
Second compound 10 µM, first compound 0.1 µM
  viability, T/C: 50.5%
Second compound 10 µM, first compound 0.316 µM
  viability, T/C: 21.3%
Second compound 10 µM, first compound 1 µM
  viability, T/C: 1.25%

## CC1(C)CCC(Nc2ncc(C(F)(F)F)c(-c3c[nH]c4c(P(C)(C)=O)c(C#N)ccc34)n2)CN1 (stereo not drawn) + C#Cc1c(F)ccc2cc(O)cc(-c3ncc4c(N5CC6CCC(C5)N6)nc(OCC56CCCN5CC(F)C6)nc4c3F)c12
Second compound 0.0316 µM
  IC50: 4.05 nM
Second compound 0.1 µM
  IC50: 5.69 nM
Second compound 0.316 µM
  IC50: 5.3 nM
Second compound 1 µM
  IC50: 5.82 nM
Second compound 3.16 µM
  IC50: 5.41 nM
Second compound 10 µM
  IC50: 2.06 nM
[25]
  viability, T/C: 99.2%
[26]
  viability, T/C: 56.7%
[27]
  viability, T/C: 30.9%
[28]
  viability, T/C: 22%
[29]
  viability, T/C: 19.6%
[30]
  viability, T/C: 17.6%
[31]
  viability, T/C: 92.2%
[32]
  viability, T/C: 66.7%
[33]
  viability, T/C: 35.4%
[34]
  viability, T/C: 26.7%
[35]
  viability, T/C: 18.4%
[36]
  viability, T/C: 17.5%
[37]
  viability, T/C: 91.3%
[38]
  viability, T/C: 63.7%
[39]
  viability, T/C: 34.5%
[40]
  viability, T/C: 28.1%
[41]
  viability, T/C: 20.4%
[42]
  viability, T/C: 18.2%
[43]
  viability, T/C: 86.7%
[44]
  viability, T/C: 66.1%
[45]
  viability, T/C: 37.7%
[46]
  viability, T/C: 24.4%
[47]
  viability, T/C: 20.6%
[48]
  viability, T/C: 17.1%
[49]
  viability, T/C: 87%
[50]
  viability, T/C: 64.4%
[51]
  viability, T/C: 34.7%
[52]
  viability, T/C: 28.9%
[53]
  viability, T/C: 19.7%
[54]
  viability, T/C: 19.1%
[55]
  viability, T/C: 68.7%
[56]
  viability, T/C: 40.4%
[57]
  viability, T/C: 25.2%
[58]
  viability, T/C: 24.3%
[59]
  viability, T/C: 15.3%
[60]
  viability, T/C: 13.2%

## CCc1c2c(nc3ccc(O)cc13)-c1cc3c(c(=O)n1C2)COC(=O)[C@]3(O)CC + C#Cc1c(F)ccc2cc(O)cc(-c3ncc4c(N5CC6CCC(C5)N6)nc(OCC56CCCN5CC(F)C6)nc4c3F)c12
Second compound 0.0316 µM
  IC50: 4.7 nM
Second compound 0.1 µM
  IC50: 4.58 nM
Second compound 0.316 µM
  IC50: 5.12 nM
Second compound 1 µM
  IC50: 4.9 nM
Second compound 3.16 µM
  IC50: 5.35 nM
Second compound 10 µM
  IC50: 1.04 nM
[25]
  viability, T/C: 109%
[26]
  viability, T/C: 63.3%
[27]
  viability, T/C: 30%
[28]
  viability, T/C: 11.4%
[29]
  viability, T/C: 9.62%
[30]
  viability, T/C: 9.76%
[31]
  viability, T/C: 94.1%
[32]
  viability, T/C: 61.4%
[33]
  viability, T/C: 30.9%
[34]
  viability, T/C: 10.3%
[35]
  viability, T/C: 8.95%
[36]
  viability, T/C: 8.77%
[37]
  viability, T/C: 93%
[38]
  viability, T/C: 67.7%
[39]
  viability, T/C: 30.2%
[40]
  viability, T/C: 8.72%
[41]
  viability, T/C: 7.89%
[42]
  viability, T/C: 9.18%
[43]
  viability, T/C: 86.7%
[44]
  viability, T/C: 62.4%
[45]
  viability, T/C: 33.9%
[46]
  viability, T/C: 11.3%
[47]
  viability, T/C: 8.52%
[48]
  viability, T/C: 8.89%
[49]
  viability, T/C: 87.2%
[50]
  viability, T/C: 71.3%
[51]
  viability, T/C: 29%
[52]
  viability, T/C: 10.9%
[53]
  viability, T/C: 9.14%
[54]
  viability, T/C: 8.78%
[55]
  viability, T/C: 51.6%
[56]
  viability, T/C: 29.9%
[57]
  viability, T/C: 15%
[58]
  viability, T/C: 10.1%
[59]
  viability, T/C: 9.3%
[60]
  viability, T/C: 7.33%

## C=CC(=O)Nc1cc(Nc2nccc(-c3cn(C)c4ccccc34)n2)c(OC)cc1N(C)CCN(C)C + C=CC(=O)N1CCN(c2nc(OCC3CCCN3C)nc3c(F)c(-c4nc(N)cc(C)c4C(F)(F)F)c(Cl)cc23)C(C)C1
Second compound 0.00316 µM
  IC50: 940 nM
Second compound 0.01 µM
  IC50: > 1000 nM
Second compound 0.0316 µM
  IC50: > 1000 nM
Second compound 0.1 µM
  IC50: 962 nM
Second compound 0.316 µM
  IC50: > 1000 nM
Second compound 1 µM
  IC50: 870 nM
Second compound 0.00316 µM, first compound 0.00316 µM
  viability, T/C: 98.9%
Second compound 0.00316 µM, first compound 0.01 µM
  viability, T/C: 98.9%
Second compound 0.00316 µM, first compound 0.0316 µM
  viability, T/C: 116%
Second compound 0.00316 µM, first compound 0.1 µM
  viability, T/C: 101%
Second compound 0.00316 µM, first compound 0.316 µM
  viability, T/C: 92.6%
Second compound 0.00316 µM, first compound 1 µM
  viability, T/C: 47.5%
Second compound 0.01 µM, first compound 0.00316 µM
  viability, T/C: 102%
Second compound 0.01 µM, first compound 0.01 µM
  viability, T/C: 105%
Second compound 0.01 µM, first compound 0.0316 µM
  viability, T/C: 93%
Second compound 0.01 µM, first compound 0.1 µM
  viability, T/C: 100%
Second compound 0.01 µM, first compound 0.316 µM
  viability, T/C: 96.5%
Second compound 0.01 µM, first compound 1 µM
  viability, T/C: 54.4%
[1]
  viability, T/C: 104%
[2]
  viability, T/C: 103%
[3]
  viability, T/C: 104%
[4]
  viability, T/C: 107%
[5]
  viability, T/C: 93.6%
[6]
  viability, T/C: 58.4%
[7]
  viability, T/C: 105%
[8]
  viability, T/C: 105%
[9]
  viability, T/C: 117%
[10]
  viability, T/C: 106%
[11]
  viability, T/C: 98%
[12]
  viability, T/C: 48.2%
[13]
  viability, T/C: 114%
[14]
  viability, T/C: 112%
[15]
  viability, T/C: 116%
[16]
  viability, T/C: 108%
[17]
  viability, T/C: 93.8%
[18]
  viability, T/C: 53.7%
[19]
  viability, T/C: 118%
[20]
  viability, T/C: 120%
[21]
  viability, T/C: 124%
[22]
  viability, T/C: 114%
[23]
  viability, T/C: 97.7%
[24]
  viability, T/C: 43.4%
